Reference: BindingDB's records for doi:10.1016/0006-2952(93)90073-6 (Janssen Research Foundation, 1993)

biological target: T1, 5-hydroxytryptamine receptor 1A (Homo sapiens, UniProt P08908)
T1 sequence (P08908 whole entry): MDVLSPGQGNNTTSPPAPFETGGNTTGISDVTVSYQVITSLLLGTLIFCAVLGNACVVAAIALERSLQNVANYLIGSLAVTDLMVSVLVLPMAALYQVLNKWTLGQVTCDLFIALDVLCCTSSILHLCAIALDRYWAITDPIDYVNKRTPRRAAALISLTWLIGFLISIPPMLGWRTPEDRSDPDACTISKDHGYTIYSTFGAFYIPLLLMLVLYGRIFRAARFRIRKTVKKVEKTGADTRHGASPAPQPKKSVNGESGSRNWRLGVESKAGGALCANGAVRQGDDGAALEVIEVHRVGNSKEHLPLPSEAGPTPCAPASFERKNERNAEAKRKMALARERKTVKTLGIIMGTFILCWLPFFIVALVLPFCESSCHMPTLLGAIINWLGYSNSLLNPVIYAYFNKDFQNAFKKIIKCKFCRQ

SMILES	Ki
CN1C[C@@H](NS(=O)(=O)N(C)C)C[C@@H]2c3cccc4c3c(cn4C)C[C@H]21 [MESULERGINE]	197 nM
O=c1ccc2[nH]cc(C3=CCNCC3)c2[nH]1 [CAS_127792-75-0]	3750 nM
COc1ccc(CN(CCN(C)C)c2ccccn2)cc1	> 10000 nM

Further lines, results first:

Ki	SMILES
13.9 nM	Cc1nc2c(C)cccn2c(=O)c1CCN1CCC(c2noc3cc(F)ccc23)CC1 [CAS_129029-23-8]
> 10000 nM	CCN1CCCC1CNC(=O)c1cc(S(N)(=O)=O)ccc1OC (configuration not stated) [N-[(1-ethylpyrrolidin-2-yl)methyl]-2-methoxy-5-sulfamoylbenzamide]
7360 nM	Cn1cc(C(F)(F)F)nc1-c1ccc(OCC(O)CNCCOc2ccc(O)c(C(N)=O)c2)cc1 (configuration not stated)
25.8 nM	OC(CNCC(O)C1CCc2cc(F)ccc2O1)C1CCc2cc(F)ccc2O1 (configuration not stated) [CAS_99200-09-6]
